According to US8809368B2, “Compounds affecting gap junction activity” (Kansas State University Research Foundation, priority 2006, dated 2014):

What was measured:
MEC = experiment: MTT assay, cell viability, MEC; format: cell-based, human; conditions: for cell viability compared to control: 24 hours
Procedure: The cytotoxicity of PQ1 in MEC and T47D cells using MTT assay was also determined. Cells were treated with 10, 100, 200, and 500 nM PQ1 for 24 hours. MTT assay was performed according to the manufacture's recommendations. A 200 nM PQ1 has 67% cell viability compared to controls (FIG. 16). Treatments of 100 and 200 nM PQ1 have 95% and 103% MEC cell viability compared to control. However, both MEC and T47D cells decrease cell viability to 50% and 65% at 1 μM PQ1, respectively. Thus, 100-200 nM of PQ1 is sufficient to enhance GJIC activity.
MTT assay. MTT (3-(4,5-dimethyl thiazol-2-yl)-2,5-diphenyl tetrazolium bromide) assay was performed with adherent cell cultures using a culture medium free of phenol red and of serum. Solution containing MTT was metabolized by the cells (incubation period 3 hours). MTT is a tetrazolium salt (yellowish) that is cleaved to formazan crystals by the succinate dehydrogenase system which belongs to the mitochondrial respiratory chain, and is only active in viable cells. The mitochondrial succinate dehydrogenase reduces the MTT crystals into purple formazan in the presence of an electron coupling reagent. The more viable cells will be presented in a well, the more formazan dye will be produced. After solubilization of the MTT crystals with the solubilization solution MTT, the amount of dye will be measured spectrophotometrically at 540 nm.

active caspase 3 = experiment: Western blot of active caspase 3 in T47D cells; format: cell-based, human
Procedure: T47D cells were treated with 0, 200 nM, 500 nM and 1 μM PQ1 for 24 hours. Treatment with succinic acid was used as control. Western blot analysis was performed. Nitrocellulose membrane was blotted with the active form of caspase 3 antibodies (16 kDa). Actin acts as loading control. Graphical presentation of three experiments are presented with statistical significance, p<0.05.
Western Blot analysis: Cells were grown in RPMI media until they were 90% confluent in 75 cm2 flasks. Cells were dosed with 200, 500 nM of PQ1 for 24 hours. Cells were harvested with lysis buffer and centrifugated. Cell lysate was run on a 12% SDSpolyacrylamide gel electrophoresis (PAGE) and transferred to nitrocellulose membrane. Membrane was incubated with Caspase Antibody. Western blots were detected by enhanced chemiluminescence detection reagents.
The effect of PQ1 on apoptosis was further examined by detecting the active form of caspase 3. T47D cells were treated with […] PQ1 for 24 hours. Western blot analysis was performed using active form of caspase 3 antibodies. A 200 nM PQ1 causes 1.5-fold increase of active caspase 3 compared to control (FIG. 18). However, a decrease of caspase is observed in higher concentrations, a common effect in apoptotic protein expression. This is due to the cytotoxicity response of the cells.
(§1) Western Blot Analysis. Cells were grown in serum supplemented RPMI media until they were 90% confluent in 75 cm^2 flasks. Cells were kept in starving media containing phenol red-free DMEM with 5% charcoal dextran stripped serum, overnight. Cells were dosed with 0, 10, 100, 200 and 500 nM of PQ1 for 24 hours. Cells were washed three times with cold PBS and then were harvested using lysis buffer (20 mM Tris pH 7.5, 0.5 mM EDTA, 0.5 mM EGTA, 0.5% Triton X-100) with 1:1000 dilution of protease inhibitors (Sigma-Aldrich, Saint Louis, Mo.). Cell lysate was sonicated and centrifuged at 13,000 rpm for 30 minutes at 4° C. […] Western blots were detected by enhanced chemiluminescence detection reagents (Pierce, Rockford, Ill., USA).

T47D cells [1] = experiment: Transepithelial electrical resistance (TEER), T47D monolayers; format: cell-based, human; conditions: 100, 200 or 500 nM, 48 hours, compared to control
Procedure: T47D cells were treated with 0, 100, 200, and 500 nM PQ1 for 48 hours. TEER assay was performed as described herein. TEER values of each treatment in KΩ/cm^2 were converted to relative percent of control.
Measurement of transepithelial electrical resistance. Cells were grown to 100% confluency on a 12-well transwell (BD Biosciences, San Jose, Calif.) and treated with 0, 100, 200, and 500 nM PQ1 for 48 hours. Transepithelial electrical resistance (TEER) of the T47D monolayers was measured by a high-precision. Resulting voltages were recorded with the aid of a differential amplifier with a high input resistance. Data were corrected for well area (given in Ω·cm^2).

Cx26 = experiment: Western blot of Cx26 in T47D cells; format: cell-based, human; conditions: 10, 100, 200 and 500 nM, 24 hours
Procedure: (§2) T47D cells were dosed with PQ1 for 24 hours. The Western blot analysis was performed as described in Materials and Methods. Whole cell extract was analyzed for Cx 43, Cx32, and Cx26. Experiment was performed at least three times.
(§3) Furthermore, whole cell extract of PQ1 treatment was analyzed for the changes in gap junctional proteins, connexins. Cells were treated with 10, 100, 200, and 500 nM PQ1 for 24 hours. Western blot analysis was performed against Cx26, Cx32, and Cx43 (FIG. 17). […] Anti-tubulin was used as a loading control.
as §1

Cx43 = experiment: Western blot of Cx43 and phosphorylated Cx43 in T47D cells; format: cell-based, human; conditions: 10, 100, 200 and 500 nM, 24 hours
Procedure: as §2, §3, §1

T47D cells [2] = experiment: Electron microscopy of PQ1-treated cells; format: cell-based, human; conditions: PQ1 treatment
R28 cells = experiment: Apoptosis assay, Annexin V-FITC/PI flow cytometry, R28 cells; format: cell-based, rat
Source text: (A) Representative flow cytometer images of R28 cells with different treatments of PQ1 and/or CoCl2. The y-axis quantifies the number of cells stained with propidium iodine and the x-axis quantifies number of cells stained with Annexin V-FITC. (B,C) Histogram of % apoptotic cells after treatment with CoCl2 and PQ1. The percentage of apoptotic cells represents cells that are Annexin V-FITC positive and both propidium iodide and Annexin V-FITC positive after different time periods.
Apoptosis assay. Approximately 70% confluent R28Cells in 25 cm2 flasks were treated with PQ1 at 10 μM for 40 min followed by treatment with 500 μM CoCl2 for different time periods to induce apoptosis. After this, cells were harvested and stained with Annexin V-FITC and propidium iodide (PI) according to the manufacturer's protocol (BioVision # K101-100). Annexin V-FITC/PI binding was analyzed by flow cytometry using a BD FACSCalibur system and data was analyzed using the CellQuest software.
The later phase of apoptosis is assessed by measuring the DNA labeling with the PI, an indicator of the cell membrane permeabilization.

For `COc1cc(NCCCN)c2nccc(C)c2c1Oc1cccc(C(F)(F)F)c1.O=C(O)CCC(=O)O` [PQ1, 6-Methoxy-8-[(3-aminopropyl)amino]-4-methyl-5-(3-trifluoromethylphenyloxy) quinoline succinic acid], the “cell viability compared to control” value (MEC; 100 nM) was 95%, the “cell viability compared to control” value (MEC; 200 nM) was 103% and the cell viability (MEC; 1 μM) was 50%. For the same molecule, the “increase of active caspase 3” value (active caspase 3; 200 nM, 24 hours, compared to control) was 1.5 fold, the “increase in the expression of active caspase 3” value (active caspase 3; 200 and 500 nM) was 50% and the “active caspase 3” value (active caspase 3; higher concentrations, 24 hours) was “decrease”. For the same molecule, the “tight junction ion permeability by TEER” value (T47D cells [1]) was “no significant effect”, the Cx26 expression (Cx26) was “no effect” and the Cx43 expression (Cx43) was “no effect”. The “mitochondria by electron microscopy” value (T47D cells [2]) was “Mitochondrial damage”, the “protection from CoCl2-induced apoptosis” value (R28 cells; 10 μM PQ1 40 min pre-treatment, then CoCl2 500 μM) was “protected the cells significantly” and the “damage to the cells” value (R28 cells; 10 μM PQ1 only, 36 h) was “did not cause any damage”.
